{"source": "paper PMC9841530", "about": "(Journal of Medicinal Chemistry, 2022)", "key": {"[1]": {"experiment": "Thermodynamic solubility in PBS", "type": "physicochemical", "details": "for Solubility: PBS (pH 7.5), concentration after 90 min of vortexing, ND: not detected; for fold more soluble than Cact-3: PBS solubility vs Cact-3"}, "[2]": {"target": "human wild-type CFTR (Homo sapiens, UniProt P13569)", "sequence (P13569 whole entry)": "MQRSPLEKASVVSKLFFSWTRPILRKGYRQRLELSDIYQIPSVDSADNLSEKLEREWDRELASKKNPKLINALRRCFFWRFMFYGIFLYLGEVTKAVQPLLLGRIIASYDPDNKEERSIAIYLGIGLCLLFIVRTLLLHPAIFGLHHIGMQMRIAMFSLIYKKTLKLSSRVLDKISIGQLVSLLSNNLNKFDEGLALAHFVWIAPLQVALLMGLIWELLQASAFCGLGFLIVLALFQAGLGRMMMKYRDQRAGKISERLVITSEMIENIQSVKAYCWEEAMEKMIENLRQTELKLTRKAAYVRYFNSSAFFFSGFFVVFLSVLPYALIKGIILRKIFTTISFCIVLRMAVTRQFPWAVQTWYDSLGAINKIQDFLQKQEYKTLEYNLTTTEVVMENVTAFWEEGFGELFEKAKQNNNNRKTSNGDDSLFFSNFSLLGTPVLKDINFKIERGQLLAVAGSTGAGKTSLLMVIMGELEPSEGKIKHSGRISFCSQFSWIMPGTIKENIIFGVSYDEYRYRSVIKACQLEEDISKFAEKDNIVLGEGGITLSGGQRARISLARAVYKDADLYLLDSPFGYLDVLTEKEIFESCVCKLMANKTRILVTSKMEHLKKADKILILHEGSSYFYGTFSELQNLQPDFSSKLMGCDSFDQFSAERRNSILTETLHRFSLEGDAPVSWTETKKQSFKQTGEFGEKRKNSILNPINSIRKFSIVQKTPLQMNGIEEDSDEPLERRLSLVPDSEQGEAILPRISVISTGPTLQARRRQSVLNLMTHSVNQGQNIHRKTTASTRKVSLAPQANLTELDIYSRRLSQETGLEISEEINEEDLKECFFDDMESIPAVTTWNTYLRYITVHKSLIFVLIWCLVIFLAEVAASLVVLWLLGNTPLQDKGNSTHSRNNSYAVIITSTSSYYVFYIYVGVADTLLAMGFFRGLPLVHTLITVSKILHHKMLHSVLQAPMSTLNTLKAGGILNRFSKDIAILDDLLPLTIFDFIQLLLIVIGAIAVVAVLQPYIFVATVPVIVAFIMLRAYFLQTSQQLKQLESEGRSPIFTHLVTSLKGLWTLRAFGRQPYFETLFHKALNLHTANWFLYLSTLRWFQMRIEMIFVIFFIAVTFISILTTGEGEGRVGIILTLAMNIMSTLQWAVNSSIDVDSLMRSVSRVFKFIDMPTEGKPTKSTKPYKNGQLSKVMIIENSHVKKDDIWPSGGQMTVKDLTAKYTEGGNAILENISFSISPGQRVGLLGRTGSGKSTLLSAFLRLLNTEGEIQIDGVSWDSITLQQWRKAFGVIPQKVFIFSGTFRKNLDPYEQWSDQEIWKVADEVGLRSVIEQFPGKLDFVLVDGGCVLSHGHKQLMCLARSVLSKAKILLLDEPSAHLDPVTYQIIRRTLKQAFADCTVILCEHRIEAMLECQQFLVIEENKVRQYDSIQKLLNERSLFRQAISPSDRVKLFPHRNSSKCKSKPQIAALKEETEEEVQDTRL", "experiment": "YFP fluorescence quenching assay of CFTR channel activity", "type": "cell-based", "details": "for fold less potent than Cact-3: YFP EC50 vs Cact-3"}, "[3]": {"test_system": "IL-1β mRNA", "details": "mouse, in vivo"}, "[4]": {"test_system": "TNF-α mRNA", "details": "mouse, in vivo"}, "[5]": {"type": "in vivo, New Zealand White Rabbit", "details": "rabbit; for AUC0-24 / AUC0-inf / AUC0-last: 0.1 mg/eye"}, "[6]": {"test_system": "scopolamine-induced dry eye mouse model", "experiment": "Tear volume in scopolamine-induced dry eye mouse model", "type": "in vivo", "details": "DED mice; 5 μL eye drops three times a day for 10 days; 16d 2060 μM, 0.3% diquafosol sodium"}, "[7]": {"experiment": "Maximum solubility for eye drop administration", "type": "physicochemical"}, "[8]": {"test_system": "intracellular cAMP", "experiment": "Intracellular cAMP measurement in CHO-K1 cells", "type": "cell-based", "details": "30 μM, 10 min, IBMX 100 μM, compared to the control"}, "[9]": {"test_system": "volume-regulated anion channel (VRAC)", "experiment": "VRAC activity by YFP fluorescence quenching assay", "type": "cell-based", "details": "16d 30 μM, VI-116 10 μM; hypotonic solution 5 min"}, "[10]": {"test_system": "corneal epithelial (CorE) cells", "experiment": "Corneal epithelial cytotoxicity test", "type": "cell-based, human", "details": "30 μM, 48 h, MTS assay"}, "[11]": {"test_system": "normal female C57BL/6J mice", "experiment": "Tear volume in normal mice", "type": "in vivo, mouse", "details": "for effect on tear volume: 16d up to 1 mM, Cact-3 up to 72 μM"}, "[12]": {"test_system": "conjunctival epithelial (ConjE) cells", "experiment": "Conjunctival epithelial cytotoxicity test", "type": "cell-based, human", "details": "30 μM, 48 h, MTS assay"}, "[13]": {"target": "T1, human ANO1 (Homo sapiens, UniProt Q5XXA6)", "T1 sequence (Q5XXA6 1-986)": "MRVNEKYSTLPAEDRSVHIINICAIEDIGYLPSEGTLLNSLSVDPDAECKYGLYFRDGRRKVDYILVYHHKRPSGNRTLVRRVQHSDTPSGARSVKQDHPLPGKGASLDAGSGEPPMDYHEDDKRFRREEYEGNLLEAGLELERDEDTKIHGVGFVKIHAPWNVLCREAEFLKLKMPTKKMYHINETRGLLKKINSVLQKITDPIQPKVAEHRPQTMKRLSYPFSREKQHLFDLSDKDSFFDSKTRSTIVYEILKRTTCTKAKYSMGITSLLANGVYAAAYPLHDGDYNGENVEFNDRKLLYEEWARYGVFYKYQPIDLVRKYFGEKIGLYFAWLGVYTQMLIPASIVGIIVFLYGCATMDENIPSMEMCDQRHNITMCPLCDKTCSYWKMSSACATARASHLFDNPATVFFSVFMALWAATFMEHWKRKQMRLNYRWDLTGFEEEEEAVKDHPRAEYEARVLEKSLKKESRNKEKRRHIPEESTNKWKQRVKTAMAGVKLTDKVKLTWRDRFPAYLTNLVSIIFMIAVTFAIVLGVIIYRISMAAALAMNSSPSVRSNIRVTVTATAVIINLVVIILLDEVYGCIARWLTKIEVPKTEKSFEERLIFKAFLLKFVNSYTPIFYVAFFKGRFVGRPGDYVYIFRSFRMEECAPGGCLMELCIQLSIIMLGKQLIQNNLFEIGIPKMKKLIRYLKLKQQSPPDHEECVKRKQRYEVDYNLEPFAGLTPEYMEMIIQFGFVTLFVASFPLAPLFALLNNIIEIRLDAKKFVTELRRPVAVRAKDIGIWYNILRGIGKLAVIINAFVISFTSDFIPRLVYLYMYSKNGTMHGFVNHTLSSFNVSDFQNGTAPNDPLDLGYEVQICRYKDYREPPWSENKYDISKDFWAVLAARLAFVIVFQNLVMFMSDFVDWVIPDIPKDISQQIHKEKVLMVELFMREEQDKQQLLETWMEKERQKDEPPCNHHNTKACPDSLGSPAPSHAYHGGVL", "experiment": "ANO1 apical membrane current in FRT cells expressing human ANO1", "type": "cell-based", "details": "16d 30 μM, Ani9 10 μM; ANO1 activated by 100 μM ATP"}, "[14]": {"test_system": "IL-17 mRNA", "details": "mouse, in vivo"}, "[15]": {"test_system": "scopolamine-induced dry eye mouse model", "experiment": "Corneal erosion grading in scopolamine-induced dry eye mouse model", "type": "in vivo", "details": "DED mice; 16d 2060 μM three times a day for 10 days; compared to control group"}, "[16]": {"test_system": "MMP-2 mRNA", "details": "mouse, in vivo"}, "[17]": {"target": "T2, human CFTR (Homo sapiens, UniProt P13569)", "T2 sequence (P13569 whole entry)": "as the sequence (P13569 whole entry) above", "details": "20 μM CFTRinh-172; CHO-K1 cells expressing human CFTR"}, "[18]": {"target": "endogenous CFTR channels (Homo sapiens, UniProt P13569)", "sequence (P13569 whole entry)": "as the sequence (P13569 whole entry) above", "details": "10 μM CFTRinh-172; primary cultured human conjunctival epithelial cells"}, "[19]": {"target": "T2, human CFTR", "experiment": "Apical membrane current in FRT cells expressing human CFTR", "type": "cell-based", "details": "10 μM CFTRinh-172"}}, "note": "Read-outs that look alike come from different tables or passages of the source."}
{"molecule": "COc1ccc(-c2ccnc3cc(C(=O)Nc4ccc(OCCN5CCOCC5)cc4)nn23)cc1OC", "note": "[5e, 7-(3,4-Dimethoxyphenyl)-N-(4-(2-morpholinoethoxy)phenyl)pyrazolo[1,5-a]pyrimidine-2-carboxamide]", "values": [{"measurement": "Solubility", "setting": "[1]", "value": "completely insoluble"}]}
{"molecule": "COc1ccc(-c2ccnc3cc(C(=O)Nc4ccc(N5CCOCC5)cc4)nn23)cc1OC", "note": "[5f, 7-(3,4-Dimethoxyphenyl)-N-(4-morpholinophenyl)pyrazolo[1,5-a]pyrimidine-2-carboxamide]", "values": [{"measurement": "Solubility", "setting": "[1]", "value": "completely insoluble"}]}
{"molecule": "COC(=O)c1ccc(CNC(=O)c2cc3nccc(-c4ccc(OC)c(OC)c4)n3n2)cc1", "note": "[5g, Methyl 4-((7-(3,4-dimethoxyphenyl)pyrazolo[1,5-a]pyrimidine-2-carboxamido)methyl)benzoate]", "values": [{"measurement": "fold less potent than 5d", "setting": "[2]; YFP EC50 vs 5d", "value": 34, "unit": "fold"}]}
{"molecule": "COc1ccc(-c2ccnc3cc(C(=O)NCc4ccc(N5CCOCC5)cc4)nn23)cc1OC", "note": "[5h, 7-(3,4-Dimethoxyphenyl)-N-(4-morpholinobenzyl)pyrazolo[1,5-a]pyrimidine-2-carboxamide]", "values": [{"measurement": "fold less potent than 5f", "setting": "[2]; YFP EC50 vs 5f", "value": 101, "unit": "fold"}]}
{"molecule": "COc1ccc(-c2ccnc3cc(C(=O)Nc4ccc(C(=O)O)cc4)nn23)cc1OC", "note": "[9a, 4-(7-(3,4-Dimethoxyphenyl)pyrazolo[1,5-a]pyrimidine-2-carboxamido)benzoic Acid]", "values": [{"measurement": "fold more soluble than Cact-3", "setting": "[1]", "value": 88, "unit": "fold"}, {"measurement": "fold less potent than Cact-3", "setting": "[2]", "value": 17, "unit": "fold"}]}
{"molecule": "COc1ccc(-c2ccnc3cc(C(=O)Nc4ccc(C(=O)O)cc4F)nn23)cc1OC", "note": "[9b, 4-(7-(3,4-Dimethoxyphenyl)pyrazolo[1,5-a]pyrimidine-2-carboxamido)-3-fluorobenzoic Acid]", "values": [{"measurement": "solubility/YFP ratio, fold less than 9a", "setting": "[1]; vs 9a", "value": 2, "unit": "fold"}, {"measurement": "times more potent than 9a", "setting": "[2]; YFP EC50 vs 9a", "value": 7, "unit": "times"}]}
{"molecule": "COc1ccc(-c2ccnc3cc(C(=O)Nc4ccc(C(=O)N5CCOCC5)cc4)nn23)cc1OC", "note": "[10a, 7-(3,4-Dimethoxyphenyl)-N-(4-(morpholine-4-carbonyl)phenyl)pyrazolo[1,5-a]pyrimidine-2-carboxamide]", "values": [{"measurement": "Solubility", "setting": "[1]", "value": "completely insoluble"}]}
{"molecule": "COc1ccc(-c2ccnc3cc(C(=O)Nc4ccc(C(=O)N5CCN(C)CC5)cc4)nn23)cc1OC.Cl", "note": "[11c, 7-(3,4-Dimethoxyphenyl)-N-(4-(4-methylpiperazine-1-carbonyl)phenyl)pyrazolo[1,5-a]pyrimidine-2-carboxamide Hydrochloride]", "values": [{"measurement": "fold more soluble than Cact-3", "setting": "[1]", "value": 4017, "unit": "fold"}, {"measurement": "fold more potent than 11a", "setting": "[2]; YFP EC50 vs 11a", "value": 13, "unit": "fold"}, {"measurement": "fold less potent than Cact-3", "setting": "[2]", "value": 16, "unit": "fold"}]}
{"molecule": "COc1ccc(-c2ccnc3cc(C(=O)N4CCN(C(=O)c5ccccc5)CC4)nn23)cc1OC", "note": "[16b, (4-Benzoylpiperazin-1-yl)(7-(3,4-dimethoxyphenyl)pyrazolo[1,5-a]pyrimidin-2-yl)methanone]", "values": [{"measurement": "fold more potent than 16a", "setting": "[2]; YFP EC50 vs 16a", "value": 7, "unit": "fold"}]}
{"molecule": "COc1ccc(-c2ccnc3cc(C(=O)N4CCN(C(=O)c5ccccc5)[C@@H](C)C4)nn23)cc1OC", "note": "[16d, (S)-(4-Benzoyl-3-methylpiperazin-1-yl)(7-(3,4-dimethoxyphenyl)pyrazolo[1,5-a]pyrimidin-2-yl)methanone]", "values": [{"measurement": "mRNA expression level of IL-1β", "setting": "[3]", "value": "significantly decreased"}, {"measurement": "mRNA expression level of TNF-α", "setting": "[4]", "value": "significantly decreased"}, {"measurement": "AUC0-24", "setting": "[5]; mean conjunctiva", "value": "4734.0 ng·h/mL or ng·h/g"}, {"measurement": "AUC0-inf", "setting": "[5]; mean conjunctiva", "value": "13741.0 ng·h/mL or ng·h/g"}, {"measurement": "AUC0-last", "setting": "[5]; mean conjunctiva", "value": "9819.0 ng·h/mL or ng·h/g"}, {"measurement": "AUC0-24", "setting": "[5]; mean cornea", "value": "19409.0 ng·h/mL or ng·h/g"}, {"measurement": "AUC0-inf", "setting": "[5]; mean cornea", "value": "35802.0 ng·h/mL or ng·h/g"}, {"measurement": "AUC0-last", "setting": "[5]; mean cornea", "value": "28349.0 ng·h/mL or ng·h/g"}, {"measurement": "adverse effects during the PK study", "setting": "[5]; topical ocular administration 0.1 mg/eye", "value": "No adverse effects"}, {"measurement": "period maintained in cornea and conjunctiva", "setting": "[5]; cornea and conjunctiva", "value": "> 8", "unit": "h"}, {"measurement": "effect on scopolamine-induced tear volume decrease", "setting": "[6]", "value": "significantly and almost completely restored"}, {"measurement": "Solubility", "setting": "[7]", "value": "> 2000", "unit": "µM"}, {"measurement": "effect on intracellular cAMP level", "setting": "[8]", "value": "slightly increased"}, {"measurement": "effect on VRAC channel activity", "setting": "[9]", "value": "did not affect"}, {"measurement": "effect on cell viability of CorE", "setting": "[10]", "value": "did not affect"}, {"measurement": "Emax (tear volume)", "setting": "[11]", "value": "higher than Cact-3"}, {"measurement": "effect on tear volume", "setting": "[11]", "value": "dose-dependent increase"}, {"measurement": "effect on cell viability of ConjE", "setting": "[12]", "value": "did not affect"}, {"measurement": "effect on ANO1 channel activity", "setting": "[13]", "value": "did not affect"}, {"measurement": "mRNA expression level of IL-17", "setting": "[14]", "value": "significantly decreased"}, {"measurement": "effect on corneal erosion", "setting": "[15]", "value": "significantly reduced"}, {"measurement": "mRNA expression level of MMP-2", "setting": "[16]", "value": "significantly decreased"}]}
{"molecule": "O=C(O)c1ccc(/C=C2\\SC(=S)N(c3cccc(C(F)(F)F)c3)C2=O)cc1", "note": "[CFTRinh-172]", "values": [{"measurement": "inhibition of 16d-induced CFTR whole-cell currents", "setting": "[17]", "value": "completely inhibited"}, {"measurement": "inhibition of 16d-induced CFTR current (short-circuit current)", "setting": "[18]", "value": "fully inhibited"}, {"measurement": "block of 16d-induced CFTR chloride current", "setting": "[19]", "value": "completely blocked"}]}
{"molecule": "CCOc1ccc(NC(=O)c2cc3nccc(-c4ccc(OC)c(OC)c4)n3n2)cc1", "note": "[compound 1, 7-(3,4-Dimethoxyphenyl)-N-(4-ethoxyphenyl)pyrazolo[1,5-a]pyrimidine-2-carboxamide]", "values": [{"measurement": "Solubility", "setting": "[7]", "value": 72, "unit": "µM"}, {"measurement": "solubility at 90 min", "setting": "[1]; PBS, pH 7.5", "value": 0.059, "unit": "µM"}, {"measurement": "time of maximal tear volume after administration", "setting": "[11]; 2.5 μL eye drops, once", "value": 3, "unit": "h"}, {"measurement": "effect on tear volume", "setting": "[11]", "value": "dose-dependent increase"}]}
{"molecule": "O=c1ccn([C@@H]2O[C@H](COP(=O)(O)OP(=O)(O)OP(=O)(O)OP(=O)(O)OC[C@H]3O[C@@H](n4ccc(=O)[nH]c4=O)[C@H](O)[C@@H]3O)[C@@H](O)[C@H]2O)c(=O)[nH]1", "note": "[diquafosol, reference compound]", "values": [{"measurement": "mRNA expression level of TNF-α", "setting": "[4]", "value": "significantly reduced"}, {"measurement": "effect on scopolamine-induced tear volume decrease", "setting": "[6]", "value": "significant recovery"}, {"measurement": "mRNA expression level of IL-17", "setting": "[14]", "value": "significantly reduced"}, {"measurement": "mRNA expression level of MMP-2", "setting": "[16]", "value": "significantly reduced"}]}
